Assay results reported in paper PMC2217384 (The Journal of General Physiology, 2003).

Target: T1, P2X1 receptor (Rattus norvegicus, UniProt P47824)
T1 sequence (P47824 1-399): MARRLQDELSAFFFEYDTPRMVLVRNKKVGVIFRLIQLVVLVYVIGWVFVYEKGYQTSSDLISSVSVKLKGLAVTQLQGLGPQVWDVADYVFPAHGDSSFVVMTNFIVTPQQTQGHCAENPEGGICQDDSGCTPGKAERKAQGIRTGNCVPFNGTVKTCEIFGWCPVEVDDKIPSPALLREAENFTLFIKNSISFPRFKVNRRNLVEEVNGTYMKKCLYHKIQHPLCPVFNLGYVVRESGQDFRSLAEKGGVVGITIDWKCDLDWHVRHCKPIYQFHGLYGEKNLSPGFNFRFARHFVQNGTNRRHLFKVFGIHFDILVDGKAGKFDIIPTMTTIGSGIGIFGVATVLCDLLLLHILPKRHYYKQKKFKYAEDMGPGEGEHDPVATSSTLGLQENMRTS
Assay: two-electrode voltage clamp in Xenopus oocytes
Assay type: cell-based

Nc1ncnc2c1ncn2[C@@H]1O[C@H](COP(=O)(O)OP(=O)(O)OP(=O)(O)O)[C@@H](O)[C@H]1O [ATP]
EC50: 700 ± 60 nM
